Data: USRE39616E1, “Aminoindan derivatives” (priority 1996, dated 2007)

target: T1, whole brain AChE (Mus musculus, UniProt P21836); assay: not given; details: mice, whole brain; at peak of activity
T1 sequence (P21836 32-614): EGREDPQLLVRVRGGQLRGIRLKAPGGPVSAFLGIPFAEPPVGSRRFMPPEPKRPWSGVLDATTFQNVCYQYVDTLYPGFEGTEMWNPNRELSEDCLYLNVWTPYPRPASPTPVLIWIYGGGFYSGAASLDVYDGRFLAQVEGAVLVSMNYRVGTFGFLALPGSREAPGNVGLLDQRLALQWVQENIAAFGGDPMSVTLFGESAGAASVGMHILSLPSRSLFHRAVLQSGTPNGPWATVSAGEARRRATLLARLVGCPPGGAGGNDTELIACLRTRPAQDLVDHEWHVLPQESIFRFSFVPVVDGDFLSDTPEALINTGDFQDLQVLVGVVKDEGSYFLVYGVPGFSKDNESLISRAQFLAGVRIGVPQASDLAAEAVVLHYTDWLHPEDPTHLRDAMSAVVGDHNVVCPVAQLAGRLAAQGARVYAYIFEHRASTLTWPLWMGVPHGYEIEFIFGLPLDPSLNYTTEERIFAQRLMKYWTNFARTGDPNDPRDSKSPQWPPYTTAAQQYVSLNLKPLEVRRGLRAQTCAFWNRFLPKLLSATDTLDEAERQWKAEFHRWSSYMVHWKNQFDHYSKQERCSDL

| SMILES | AChE Inhibition Ex vivo ED50 (AC) [µmol/kg] |
| --- | --- |
| C#CCNC1CCc2ccc(OC(=O)N(C)CCC)cc21 (centres unmarked) [Compound 26] | 120 |
| C#CCN(C)C1CCc2cccc(OC(=O)N(C)C)c21 (centres unmarked) [Compound 32] | 7.8 |
| C#CCNC1CCc2ccc(OC(=O)N(C)CCCCCC)cc21 (centres unmarked) [Compound 36] | >400 |
| C#CCNC1CCc2ccc(OC(=O)N(C)c3ccccc3)cc21 (centres unmarked) [Compound 62] | 290 |
| C#CCNC1CCc2ccc(OC(=O)N(C)Cc3ccccc3)cc21 (centres unmarked) [Compound 63] | 140 |

same assay, conditions: mouse, in vivo

| SMILES | AChE Inhibition Time to peak activity t [min] |
| --- | --- |
| C#CCNC1CCc2ccc(OC(=O)N(C)CCC)cc21 (centres unmarked) [Compound 26] | 30 to 60 |
| C#CCN(C)C1CCc2cccc(OC(=O)N(C)C)c21 (centres unmarked) [Compound 32] | 15 |
| C#CCNC1CCc2ccc(OC(=O)N(C)c3ccccc3)cc21 (centres unmarked) [Compound 62] | 60 |
| C#CCNC1CCc2ccc(OC(=O)N(C)Cc3ccccc3)cc21 (centres unmarked) [Compound 63] | 60 to 90 |

test system: mice; assay: not given; details: mouse, in vivo

| SMILES | Acute Toxicity LD50 (LD) [µmol/kg] | Therapeutic Ratio LD/AC |
| --- | --- | --- |
| C#CCNC1CCc2ccc(OC(=O)N(C)CCC)cc21 (centres unmarked) [Compound 26] | 1200 | 9 |
| C#CCN(C)C1CCc2cccc(OC(=O)N(C)C)c21 (centres unmarked) [Compound 32] | 68 | 9.0 |
| C#CCNC1CCc2ccc(OC(=O)N(C)CCCCCC)cc21 (centres unmarked) [Compound 36] | >1000 | – |
| C#CCNC1CCc2ccc(OC(=O)N(C)Cc3ccccc3)cc21 (centres unmarked) [Compound 63] | 1300 | 9.3 |

target: T2, MAO-B (Rattus norvegicus, UniProt P19643); assay: Inhibition of MAO activity in vitro, PEA as substrate; format: biochemical; design: The MAO enzyme source was a homogenate of rat brain in 0.3M sucrose; from tissue; host or cells: rat brain homogenate, 600 g supernatant; details: MAO-B Inhibition In vitro IC50, rat brain homogenate
T2 sequence (P19643 1-520): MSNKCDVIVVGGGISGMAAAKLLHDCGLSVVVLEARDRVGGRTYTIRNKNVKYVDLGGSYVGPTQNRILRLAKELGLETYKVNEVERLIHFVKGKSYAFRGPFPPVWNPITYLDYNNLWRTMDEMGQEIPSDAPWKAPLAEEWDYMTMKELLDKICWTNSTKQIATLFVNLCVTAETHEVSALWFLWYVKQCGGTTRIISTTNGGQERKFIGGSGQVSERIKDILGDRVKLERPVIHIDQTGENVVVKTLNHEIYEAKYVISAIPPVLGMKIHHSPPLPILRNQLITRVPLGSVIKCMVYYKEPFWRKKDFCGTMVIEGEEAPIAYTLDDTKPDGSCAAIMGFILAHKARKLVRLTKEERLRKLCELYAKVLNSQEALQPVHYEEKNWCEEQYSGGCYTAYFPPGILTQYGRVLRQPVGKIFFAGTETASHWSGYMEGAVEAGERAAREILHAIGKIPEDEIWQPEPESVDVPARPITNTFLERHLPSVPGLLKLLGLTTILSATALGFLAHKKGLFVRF
Method: (§1) Substrate concentrations used were 50 μM (PEA) and 1 mM (5-HT).

| SMILES | IC50 [µM] |
| --- | --- |
| C#CCNC1CCc2ccc(OC(=O)N(C)CCC)cc21 (centres unmarked) [Compound 26] | 264 |
| C#CCN(C)C1CCc2cccc(OC(=O)N(C)C)c21 (centres unmarked) [Compound 32] | 500 |
| C#CCNC1CCc2ccc(OC(=O)N(C)CCCCCC)cc21 (centres unmarked) [Compound 36] | > 1000 |

same assay, conditions: rat brain homogenate, read-out: MAO-B Inhibition In vitro IC50

| SMILES | IC50 [µM] |
| --- | --- |
| C#CCNC1CCc2ccc(OC(=O)N(C)c3ccccc3)cc21 (centres unmarked) [Compound 62] | 100 |
| C#CCNC1CCc2ccc(OC(=O)N(C)Cc3ccccc3)cc21 (centres unmarked) [Compound 63] | 120 |

target: T3, MAO-A (Mus musculus, UniProt Q64133); assay: Inhibition of MAO activity ex vivo (brain); format: in vivo, mice; details: mice, brain tissue
T3 construct: from tissue; host or cells: mouse brain
T3 sequence (Q64133 1-526): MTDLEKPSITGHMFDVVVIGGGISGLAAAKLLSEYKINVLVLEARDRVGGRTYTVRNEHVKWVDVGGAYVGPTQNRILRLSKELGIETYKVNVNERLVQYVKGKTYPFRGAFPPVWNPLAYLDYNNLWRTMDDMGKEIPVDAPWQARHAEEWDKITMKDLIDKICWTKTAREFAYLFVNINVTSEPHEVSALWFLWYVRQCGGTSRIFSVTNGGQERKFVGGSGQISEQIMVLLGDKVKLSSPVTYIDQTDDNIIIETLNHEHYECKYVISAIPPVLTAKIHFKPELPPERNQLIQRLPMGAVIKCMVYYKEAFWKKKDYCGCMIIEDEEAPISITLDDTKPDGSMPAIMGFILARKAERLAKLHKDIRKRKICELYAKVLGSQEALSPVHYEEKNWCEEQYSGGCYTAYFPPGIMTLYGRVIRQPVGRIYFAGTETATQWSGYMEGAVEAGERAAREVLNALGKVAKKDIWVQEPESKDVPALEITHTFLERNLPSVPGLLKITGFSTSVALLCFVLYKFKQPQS
Method: as §1
(§2) Male Sabra mice, weighing 45-50 g were injected with test compound solutions (prepared in 0.9% saline). Each dose was administered to two or three mice. The mice were sacrificed two hours after drug administration or at a time corresponding to the peak AChE inhibition time (see Table 11). The brain and liver were rapidly dissected and stored in appropriate vials on ice. The tissues were weighed, diluted to ½ in sucrose 0.3M and stored at −20° C. before performance of the MAO assay described above. The results given in Table 11 relate to measurements made on brain tissue only.

| SMILES | MAO-A Inhibition Ex vivo ED50 |
| --- | --- |
| C#CCNC1CCc2ccc(OC(=O)N(C)CCC)cc21 (centres unmarked) [Compound 26] | >>440 μmoles/kg |
| C#CCN(C)C1CCc2cccc(OC(=O)N(C)C)c21 (centres unmarked) [Compound 32] | >>20 μmoles/kg |
| C#CCNC1CCc2ccc(OC(=O)N(C)CCCCCC)cc21 (centres unmarked) [Compound 36] | >100 µmol/kg |
| C#CCNC1CCc2ccc(OC(=O)N(C)c3ccccc3)cc21 (centres unmarked) [Compound 62] | >>200 μmoles/kg |
| C#CCNC1CCc2ccc(OC(=O)N(C)Cc3ccccc3)cc21 (centres unmarked) [Compound 63] | >300 µmol/kg |

target: T4, MAO-B (Mus musculus, UniProt Q8BW75); assay: Inhibition of MAO activity ex vivo (brain); format: in vivo, mice; details: mice, brain tissue
T4 construct: from tissue; host or cells: mouse brain
T4 sequence (Q8BW75 1-520): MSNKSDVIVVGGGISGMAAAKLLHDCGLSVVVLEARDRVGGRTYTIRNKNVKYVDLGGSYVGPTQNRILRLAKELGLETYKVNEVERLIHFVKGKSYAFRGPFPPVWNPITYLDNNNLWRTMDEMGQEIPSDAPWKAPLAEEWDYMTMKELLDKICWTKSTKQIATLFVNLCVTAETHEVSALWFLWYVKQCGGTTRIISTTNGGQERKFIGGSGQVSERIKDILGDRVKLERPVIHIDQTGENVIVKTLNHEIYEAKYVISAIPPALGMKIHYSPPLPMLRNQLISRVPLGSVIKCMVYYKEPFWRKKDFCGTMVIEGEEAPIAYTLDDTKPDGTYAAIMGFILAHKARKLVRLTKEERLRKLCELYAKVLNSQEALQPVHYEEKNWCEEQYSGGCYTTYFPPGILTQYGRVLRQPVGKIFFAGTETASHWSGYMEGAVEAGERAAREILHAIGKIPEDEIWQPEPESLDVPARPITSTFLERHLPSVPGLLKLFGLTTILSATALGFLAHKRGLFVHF
Method: as §1, §2

| SMILES | MAO-B Inhibition Ex vivo ED50 |
| --- | --- |
| C#CCNC1CCc2ccc(OC(=O)N(C)CCC)cc21 (centres unmarked) [Compound 26] | 333 µmol/kg |
| C#CCN(C)C1CCc2cccc(OC(=O)N(C)C)c21 (centres unmarked) [Compound 32] | >>20 μmoles/kg |
| C#CCNC1CCc2ccc(OC(=O)N(C)CCCCCC)cc21 (centres unmarked) [Compound 36] | >100 µmol/kg |
| C#CCNC1CCc2ccc(OC(=O)N(C)c3ccccc3)cc21 (centres unmarked) [Compound 62] | >>200 μmoles/kg |
| C#CCNC1CCc2ccc(OC(=O)N(C)Cc3ccccc3)cc21 (centres unmarked) [Compound 63] | >300 µmol/kg |

target: T5, MAO-A (Rattus norvegicus, UniProt P21396); assay: Inhibition of MAO activity in vitro, 5-HT as substrate; format: biochemical; design: The MAO enzyme source was a homogenate of rat brain in 0.3M sucrose; from tissue; host or cells: rat brain homogenate, 600 g supernatant; details: MAO-A Inhibition In vitro IC50, rat brain homogenate, 5-HT substrate
T5 sequence (P21396 1-526): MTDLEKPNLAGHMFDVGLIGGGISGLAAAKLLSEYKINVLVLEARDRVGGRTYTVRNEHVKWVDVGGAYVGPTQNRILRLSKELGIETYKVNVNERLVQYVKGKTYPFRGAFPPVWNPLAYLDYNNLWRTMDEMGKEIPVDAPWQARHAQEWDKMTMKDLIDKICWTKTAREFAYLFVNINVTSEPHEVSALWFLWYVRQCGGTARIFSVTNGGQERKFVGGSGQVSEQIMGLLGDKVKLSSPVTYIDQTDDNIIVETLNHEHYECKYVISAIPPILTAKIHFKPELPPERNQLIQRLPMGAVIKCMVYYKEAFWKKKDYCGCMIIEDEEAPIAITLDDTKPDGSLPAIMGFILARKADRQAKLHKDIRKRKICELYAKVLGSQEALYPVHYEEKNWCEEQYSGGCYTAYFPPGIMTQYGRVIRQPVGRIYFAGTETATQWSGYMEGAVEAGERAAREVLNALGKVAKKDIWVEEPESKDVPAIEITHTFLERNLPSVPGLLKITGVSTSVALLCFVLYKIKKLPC
Method: as §1

| SMILES | IC50 [µM] |
| --- | --- |
| C#CCNC1CCc2ccc(OC(=O)N(C)CCC)cc21 (centres unmarked) [Compound 26] | 114 |
| C#CCN(C)C1CCc2cccc(OC(=O)N(C)C)c21 (centres unmarked) [Compound 32] | 190 |
| C#CCNC1CCc2ccc(OC(=O)N(C)CCCCCC)cc21 (centres unmarked) [Compound 36] | > 1000 |

same assay, conditions: rat brain homogenate, 5-HT substrate; read-out: MAO-A Inhibition In vitro IC50

| SMILES | IC50 [µM] |
| --- | --- |
| C#CCNC1CCc2ccc(OC(=O)N(C)c3ccccc3)cc21 (centres unmarked) [Compound 62] | 80 |
| C#CCNC1CCc2ccc(OC(=O)N(C)Cc3ccccc3)cc21 (centres unmarked) [Compound 63] | 40 |

target: T6, Human erythrocyte acetylcholinesterase (Homo sapiens, UniProt P22303); assay: biochemical; format: biochemical; details: AChE Inhibition In vitro IC50
T6 construct: Human erythrocyte acetylcholinesterase (type XIII, Sigma Israel); purchased Sigma Israel type XIII; host or cells: human erythrocytes
Method: Human erythrocyte acetylcholinesterase (type XIII, Sigma Israel), was prepared in a stock solution of 1 U/ml, containing Triton (1%) and bovine serum albumin (0.05%) in phosphate buffer (pH 8). The enzyme (0.05U) was incubated with 3-5 different concentrations of test compound (in triplicate) for periods of from 15 to 60 minutes at 37° C. […] The percentage inhibition of AChE by each concentration of drug is calculated by comparison with that of enzyme in the absence of drug.

T6 sequence (P22303 32-617 isoform P22303-2 limits assumed): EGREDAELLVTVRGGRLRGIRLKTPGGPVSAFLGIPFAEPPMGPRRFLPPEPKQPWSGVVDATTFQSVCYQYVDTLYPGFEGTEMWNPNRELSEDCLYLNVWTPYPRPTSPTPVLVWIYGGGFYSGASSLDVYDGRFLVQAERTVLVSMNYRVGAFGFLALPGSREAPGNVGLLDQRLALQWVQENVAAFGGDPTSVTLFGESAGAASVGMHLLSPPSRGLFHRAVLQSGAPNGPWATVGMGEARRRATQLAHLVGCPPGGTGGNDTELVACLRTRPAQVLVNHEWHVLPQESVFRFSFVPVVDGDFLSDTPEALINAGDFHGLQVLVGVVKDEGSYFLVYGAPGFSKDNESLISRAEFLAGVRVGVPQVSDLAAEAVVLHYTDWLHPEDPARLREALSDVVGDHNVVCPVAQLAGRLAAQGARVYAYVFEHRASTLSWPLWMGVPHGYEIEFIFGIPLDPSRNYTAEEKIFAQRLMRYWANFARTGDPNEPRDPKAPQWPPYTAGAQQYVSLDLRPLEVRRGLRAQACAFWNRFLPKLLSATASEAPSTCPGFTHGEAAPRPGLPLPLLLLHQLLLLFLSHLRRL

| SMILES | IC50 [µM] |
| --- | --- |
| C#CCNC1CCc2ccc(OC(=O)N(C)CCC)cc21 (centres unmarked) [Compound 26] | 17 |
| C#CCN(C)C1CCc2cccc(OC(=O)N(C)C)c21 (centres unmarked) [Compound 32] | 3.7 |
| C#CCNC1CCc2ccc(OC(=O)N(C)CCCCCC)cc21 (centres unmarked) [Compound 36] | 15 |
| C#CCNC1CCc2ccc(OC(=O)N(C)c3ccccc3)cc21 (centres unmarked) [Compound 62] | 0.57 |
| C#CCNC1CCc2ccc(OC(=O)N(C)Cc3ccccc3)cc21 (centres unmarked) [Compound 63] | 2.5 |
